According to ChEMBL document CHEMBL3885861, “Open TG-GATES”:

Organism: Rattus norvegicus
Experiment: Open TG-GATES - Regimen: Single
Assay type: toxicity, organism-based, Sprague-Dawley
Set-up: regimen Single, gender Male, age 6 weeks
Details: in vivo, po, 60 mg/kg, route gavage, dose level Low; for Bas / Eos / Lym / MCHC / MCV / Mono / Neu / RBC / Ret / WBC: tissue Blood; for KIDNEY_L / KIDNEY_R / KIDNEY_TOTAL: tissue Kidney; for LIVER: tissue Liver; for ALP / AST / CRE / DBIL / GLC / IP / K / LDH / Na / PL / RALB / TBIL / TC / TP / gamma-GTP: tissue Plasma

CS(=O)(=O)O.Cc1ccc(NC(=O)c2ccc(CN3CCN(C)CC3)cc2)cc1Nc1nccc(-c2cccnc2)n1 [IMATINIB MESYLATE]
Bas (3 h): 0% | Eos (3 h): 1% | Lym (3 h): 73.4% | MCHC (3 h): 32.7% | MCV (3 h): 63.2 fL | Mono (3 h): 3% | Neu (3 h): 21.6% | RBC (3 h): 603 x10_4/ul | Ret (3 h): 9.5% | WBC (3 h): 109.9 x10_2/uL | KIDNEY_L (3 h): 0.9 g | KIDNEY_R (3 h): 0.9 g | KIDNEY_TOTAL (3 h): 1.7 g | LIVER (3 h): 9.3 g | ALP (3 h): 1755.4 IU/L | AST (3 h): 81.6 IU/L | CRE (3 h): 0.2 mg/dL | DBIL (3 h): 0.008 mg/dL | GLC (3 h): 187 mg/dL | IP (3 h): 8.6 mg/dL | K (3 h): 4.1 meq/L | LDH (3 h): 243.6 IU/L | Na (3 h): 142.4 meq/L | PL (3 h): 150.2 mg/dL | RALB (3 h): 4 g/dL | TBIL (3 h): 0.03 mg/dL | TC (3 h): 82.8 mg/dL | TP (3 h): 5.5 g/dL | gamma-GTP (3 h): 0.8 IU/L | Bas (6 h): 0% | Eos (6 h): 0.8% | Lym (6 h): 80.6% | MCHC (6 h): 32.8% | MCV (6 h): 63.4 fL | Mono (6 h): 2% | Neu (6 h): 16.2% | RBC (6 h): 618.6 x10_4/ul | Ret (6 h): 9.5% | WBC (6 h): 104.6 x10_2/uL | KIDNEY_L (6 h): 0.9 g | KIDNEY_R (6 h): 0.9 g | KIDNEY_TOTAL (6 h): 1.8 g | LIVER (6 h): 8.4 g | ALP (6 h): 1520 IU/L | AST (6 h): 77.6 IU/L | CRE (6 h): 0.2 mg/dL | DBIL (6 h): 0.008 mg/dL | GLC (6 h): 190.8 mg/dL | IP (6 h): 9.4 mg/dL | K (6 h): 4.2 meq/L | LDH (6 h): 238 IU/L | Na (6 h): 140.7 meq/L | PL (6 h): 152.8 mg/dL | RALB (6 h): 4 g/dL | TBIL (6 h): 0.03 mg/dL | TC (6 h): 82.4 mg/dL | TP (6 h): 5.4 g/dL | gamma-GTP (6 h): 0.7 IU/L | Bas (9 h): 0% | Eos (9 h): 1% | Lym (9 h): 73.8% | MCHC (9 h): 33% | MCV (9 h): 63.2 fL | Mono (9 h): 2.2% | Neu (9 h): 22.6% | RBC (9 h): 613.6 x10_4/ul | Ret (9 h): 8.7% | WBC (9 h): 94.3 x10_2/uL | KIDNEY_L (9 h): 0.8 g | KIDNEY_R (9 h): 0.9 g | KIDNEY_TOTAL (9 h): 1.7 g | LIVER (9 h): 8.2 g | ALP (9 h): 1712.2 IU/L | AST (9 h): 75.4 IU/L | CRE (9 h): 0.2 mg/dL | DBIL (9 h): 0.006 mg/dL | GLC (9 h): 183.2 mg/dL | IP (9 h): 9.4 mg/dL | K (9 h): 4 meq/L | LDH (9 h): 176.4 IU/L | Na (9 h): 140 meq/L | PL (9 h): 137.4 mg/dL | RALB (9 h): 4 g/dL | TBIL (9 h): 0.016 mg/dL | TC (9 h): 77.8 mg/dL | TP (9 h): 5.5 g/dL | gamma-GTP (9 h): 0.7 IU/L | Bas (24 h): 0% | Eos (24 h): 0.6% | Lym (24 h): 85% | MCHC (24 h): 33.1% | MCV (24 h): 64.4 fL | Mono (24 h): 2.4% | Neu (24 h): 11.6% | RBC (24 h): 590.4 x10_4/ul | Ret (24 h): 8.2% | WBC (24 h): 87.7 x10_2/uL | KIDNEY_L (24 h): 0.9 g | KIDNEY_R (24 h): 0.9 g | KIDNEY_TOTAL (24 h): 1.8 g | LIVER (24 h): 10 g | ALP (24 h): 1709.8 IU/L | AST (24 h): 77.2 IU/L | CRE (24 h): 0.2 mg/dL | DBIL (24 h): 0.002 mg/dL | GLC (24 h): 186.4 mg/dL | IP (24 h): 7.6 mg/dL | K (24 h): 4 meq/L | LDH (24 h): 197 IU/L | Na (24 h): 142.7 meq/L | PL (24 h): 162.8 mg/dL | RALB (24 h): 4.1 g/dL | TBIL (24 h): 0.006 mg/dL | TC (24 h): 85.4 mg/dL | TP (24 h): 5.7 g/dL
